Series [1] concerns PSMA+ PC-3 PIP and PSMA− PC-3 flu tumors. Nature of the series: small animal PET-CT imaging. The format is in vivo, NOD/SCID mice. The conditions noted are these: 2 h post-injection. The procedure: Mice (n=3 for ^86Y-4 or ^86Y-6 and n=2 for ^86Y-5) were injected via the tail vein with 3.33-6.21 MBq (90-168 μCi) of radiotracer formulated in 100 μL of saline at pH ˜7. […] At different time points, anesthetized individual mice were placed in the prone position on the scanner gantry and secured with medical tape while the anesthesia flow rate was increased to 0.8 L/min. Images were reconstructed using the FORE/2D-OSEM method (two iterations, 16 subsets) and included correction for radioactive decay, scanner dead time, and scattered radiation. Partial volume correction (PVC) was not performed. After each PET scan, a CT scan was acquired for anatomic co-registration. To facilitate PET and CT image co-registration, a special animal bed was employed which fits both the PET and CT scanners. The animals were under anesthesia and immobilized when moving between scanners as well as during both scans. The reconstructed PET and CT images were then manually co-registered through rigid transformation, by aligning natural landmarks (such as the animal limbs and the bed contour) using the AMIDE software (from sourceforge.net/amide).
Dynamic, whole-body PET and CT images were acquired on an eXplore VISTA small-animal PET (GE Healthcare, Little Chalfont, Buckinghamshire, UK) and an X-SPECT small SPECT/CT system (Gamma Medica Ideas, Northridge, Calif.), respectively.

The next series has as its target PSMA (Homo sapiens, UniProt Q04609). Nature of the series: fluorescence-based PSMA inhibition assay (Example 1). The format is biochemical.
The nature of series [2]: r1 relaxivity of solution phantoms at 9.4 T and 25° C. The format is physicochemical. Here is the method:
(§1) When imaged at 9.4 T and 25° C., solution phantoms indicated r1 relaxivities in PBS that vary between 3.0 and 6.2 mM^−1 s^−1 per Gd(III) and between 3.0 and 12.5 mM-1 s-1 per contrast agent (Table 1). As expected, Gd1 has the lowest relaxivity followed by Gd2 and Gd3 at 25° C. To determine selectivity and specificity of the agents, human prostate cancer cells genetically modified to express high amounts of PSMA (PC3 PIP) and the corresponding wild-type, PSMA-non-expressing cells (PC3 flu) were selected as negative control (Banerjee, Angew., 2001). […] Enhancement and T1 measurements by means of MRI of the cell pellets in the presence and absence of 50 μM Gd3 indicated higher enhancement and difference in T1 relaxation rates, ΔR1 between Gd3 treated PIP cells and the control PIP cells as compared to the Gd3-treated flu cells and the control flu control cells, after removal of the Gd3 from the cell system by washing with standard medium (FIG. 4B and FIG. 4C).

Series [3] relates to PSMA+ PC3 PIP and PSMA− PC3 flu cells. Nature of the series: T1-weighted MR imaging of cell pellets. Format: cell-based, human. The conditions noted are these: PSMA+ PC3 PIP vs PSMA− PC3 flu cell pellets. Here is the method:
FIG. 4A through FIG. 4C show T1 contrast enhancement generated by Gd3 in an isogenic human PC3 prostate cancer cell pair, PSMA+ PIP and PSMA− flu cells; (A) Color coded T1 maps of PIP and flu cells. Relaxation rates were determined at 25° C. at 9.4 T; (B) Quantification of T1 changes (ΔT1) in PIP and flu cells (n=4, P<0.05) following treatment with Gd3; (C) cellular uptake of Gd3 in PIP and flu cells.
as §1

The subject of series [4] is PSMA+ PC3 PIP cells. Nature of the series: ICP-MS analysis of Gd in cell pellets. Format: cell-based, human. The source says:
Thus, the difference between ΔR1 of the PIP cells and that of the flu cells reflects the change due to the specific Gd3 binding to PSMA in the PIP cells.

The test system of series [5] is PSMA+ PC3 PIP cells. The series is described as follows: cell internalization assay (ICP-MS). Format: cell-based, human. The conditions noted are these: PSMA+ PC3 PIP cells, 4 h incubation. The procedure: FIG. 6A and FIG. 6B show the % ID of Gd3 cell surface bound (A) and internalized (B) at 1, 4 and 24 h;
Moreover, slightly higher non-specific uptake was associated with Gd2 in PSMA− PC3 flu cells, which might be related to the lower K1 value of this agent compared to Gd1. As a further check on cellular uptake and internalization, a dual modality Gd monomeric contrast agent labeled with Rhodamine-Red™-X was prepared to confirm the PSMA-mediated internalization of this class of contrast agents (FIG. 5D).
A time-dependent internalization study was performed for Gd3 (FIG. 6A and FIG. 6B) after 1, 4 and 24 h of incubation. […] A similar amount of Gd (˜33-37% ID) was associated with the cell membrane at those same time-points.

In series [6] the test system is PSMA+ PIP and PSMA− flu cells. The series is described as follows: cell uptake and internalization study of ^177Lu-SRVI71. Format: cell-based.
The test system of series [7] is PSMA+ PIP and PSMA− flu mouse xenografts. The following applies: for uptake in PSMA+ tumor: n=4, text b326. The procedure:
In vivo evaluation was performed in standard PSMA+ PIP and PSMA− flu mouse xenografts and by performing SPECT imaging with a VECT or instrument with an extra ultra-high sensitivity mouse collimator as disclosed FIG. 25A, FIG. 25B and FIG. 25C.

One may read the pKi as the Ki on a negative log10 scale, so that one unit is a factor of ten. The low end stands for a large Ki, the high end for a small Ki.

pKi: −log10 of the molar value. Read-outs that look alike come from different tables or passages of the source. Where a SMILES comes first, the peptide text is derived from it. [ ]: non-standard residue; d: D form. The star is where a group is joined. ξ: configuration not given here. X1 = O=C(O)CC[C@H](NC(=O)N[C@@H](CCCCNC(=O)CCCCCCC(=O)*)C(=O)O)C(=O)O; DOTA = O=C(O)CN1CCN(CC(=O)O)CCN(CC(=O)*)CCN(CC(=O)O)CC1; ξF = NC(Cc1ccccc1)C(=O)O

Sequence of PSMA (Q04609 whole entry): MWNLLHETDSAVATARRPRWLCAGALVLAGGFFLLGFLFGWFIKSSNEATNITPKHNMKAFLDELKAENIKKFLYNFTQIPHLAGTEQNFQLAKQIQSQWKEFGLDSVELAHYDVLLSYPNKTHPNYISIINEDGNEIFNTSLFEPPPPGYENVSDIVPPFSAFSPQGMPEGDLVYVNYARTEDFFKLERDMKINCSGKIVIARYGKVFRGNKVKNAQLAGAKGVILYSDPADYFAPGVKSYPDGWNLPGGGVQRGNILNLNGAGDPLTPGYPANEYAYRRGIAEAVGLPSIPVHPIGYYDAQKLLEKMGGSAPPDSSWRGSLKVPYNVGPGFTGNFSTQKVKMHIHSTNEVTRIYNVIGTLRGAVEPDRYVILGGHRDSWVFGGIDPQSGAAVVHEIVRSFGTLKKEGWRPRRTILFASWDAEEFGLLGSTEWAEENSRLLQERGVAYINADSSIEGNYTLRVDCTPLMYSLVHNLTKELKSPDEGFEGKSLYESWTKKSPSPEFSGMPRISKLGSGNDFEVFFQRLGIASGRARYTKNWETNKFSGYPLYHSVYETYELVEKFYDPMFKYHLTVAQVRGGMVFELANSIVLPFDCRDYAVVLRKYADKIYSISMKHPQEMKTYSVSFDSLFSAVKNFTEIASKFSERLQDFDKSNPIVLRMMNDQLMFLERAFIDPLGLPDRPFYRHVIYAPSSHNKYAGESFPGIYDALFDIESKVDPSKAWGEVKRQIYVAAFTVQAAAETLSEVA

On to `O=C([O-])CN1CCN(CC(=O)[O-])CCN(CC(=O)NC(Cc2ccccc2)C(=O)NC(Cc2ccccc2)C(=O)NC(Cc2ccccc2)C(=O)N[C@@H](CCCCNC(=O)CCCCCCC(=O)NCCCC[C@H](NC(=O)N[C@@H](CCC(=O)O)C(=O)O)C(=O)O)C(=O)O)CCN(CC(=O)[O-])CC1.[86Y+3]` (stereo partly drawn) [^86Y-5] ({DOTA}-[ξF][ξF][ξF]K(X1)-OH), for which the “non-specific accumulation on PET/CT” value in series [1] is recorded as “non-specific accumulation in the gastrointestinal tract”.
As to `O=C([O-])CN1CCN(CC(=O)[O-])CCN(CC(=O)NCCCCC(NC(=O)CN2CCN(CC(=O)[O-])CCN(CC(=O)[O-])CCN(CC(=O)[O-])CC2)C(=O)NC(CCCCNC(=O)CCCCCCC(=O)NCCCC[C@H](NC(=O)N[C@@H](CCC(=O)O)C(=O)O)C(=O)O)C(=O)O)CCN(CC(=O)[O-])CC1.[Gd+3].[Gd+3]` (stereo partly drawn) [Gd2, (30S,34S)-2,9,17,24,32-pentaoxo-1-(4,7,10-tris(carboxymethyl)-1,4,7,10-tetraazacyclododecan-1-yl)-8-(2-(4,7,10-tris(carboxymethyl)-1,4,7,10-tetraazacyclododecan-1-yl)acetamido)-3,10,16,25,31,33-hexaazahexatriacontane-11,30,34,36-tetracarboxylic acid, digadolinium(III) salt], the pKi on PSMA was 7.74. In addition, in series [2] (9.4 T, 25° C., PBS), the “r1 relaxivity, ionic (per Gd(III))” value was determined as 6.2 mM⁻¹ s⁻¹ and the “r1 relaxivity, molecular (per contrast agent)” value was 12.5 mM⁻¹ s⁻¹. In series [2] (column T1 of Table 1), the r1 relaxivity was found to be 5.44 mM⁻¹ s⁻¹. The “T1-weighted MR contrast of cell pellets” value in series [3] was “did not demonstrate T1-weighted MR contrast or changes in R1”. For the same compound, the “estimated intracellular Gd(III) concentration” value in the series with PSMA+ PC3 PIP cells [4] is about 12.5 µM. For the same compound, in the series with PSMA+ PC3 PIP cells [5], the “percent of incubated dose associated with the cell surface” value amounted to 3.51±1.32 % ID and the “percent of incubated dose internalized” value is given as 21.63±3.51 % ID.
On to `O=C([O-])CN1CCN(CC(=O)[O-])CCN(CC(=O)[O-])C(Cc2ccc(NC(=S)NCCCCNC(=O)CCCCCCC(=O)NCCCC[C@H](NC(=O)N[C@@H](CCC(=O)O)C(=O)O)C(=O)O)cc2)CN(CC(=O)[O-])CC1.[177Lu+3]` (stereo partly drawn) [^177Lu-SR-VI-71], for which the cell uptake entry in series [6] (0.01-10 μCi, PSMA+ PIP vs PSMA− flu) was “high uptake in PSMA+ PIP and negligible uptake in PSMA− flu tumor”. Besides, the “blockade of uptake in PSMA+ cells” value in series [6] (co-incubation of 10 μM of ZJ43) is given as about 90%. Also, the “fraction of total cell associated radioactivity internalized” value in series [6] (internalization study) is reported as about 44%. For the same compound, in series [7] (2 h), the “PIP:flu ratio” value was about 180, the kidney uptake turned out to be 89.3±28.9% and the “uptake in PSMA+ tumor” value is reported as 59.1±12.8 % ID/g. Further, in series [7] (3 h), the “Tissue biodistribution, Blood” value came to 0.14 ± 0.04; the “Tissue biodistribution, Flu tumor” value amounted to 0.14 ± 0.03; the “Tissue biodistribution, PIP tumor” value is 41.46 ± 7.88; the “Tissue biodistribution, SI” value turned out to be 0.23 ± 0.12. Further, in series [7] (3 h), the “Tissue biodistribution, heart” value is listed as 0.09 ± 0.04; the “Tissue biodistribution, kidney” value is 53.66 ± 9.64; the “Tissue biodistribution, liver” value was found to be 0.31 ± 0.25; the “Tissue biodistribution, lung” value was found to be 0.62 ± 0.31. In series [7] (3 h), the “Tissue biodistribution, muscle” value worked out at 0.24 ± 0.14; the “Tissue biodistribution, salivary gland” value worked out at 0.42 ± 0.09; the “Tissue biodistribution, spleen” value amounted to 1.83 ± 0.38. In addition, in series [7] (24 h), the “Tissue biodistribution, Blood” value stood at 0.03 ± 0.03; the “Tissue biodistribution, Flu tumor” value amounted to 0.09 ± 0.01; the “Tissue biodistribution, PIP tumor” value is 27.52 ± 1.19; the “Tissue biodistribution, SI” value was found to be 0.10 ± 0.05. In series [7] (24 h), the “Tissue biodistribution, heart” value came to 0.04 ± 0.00; the “Tissue biodistribution, kidney” value is reported as 4.35 ± 0.41; the “Tissue biodistribution, liver” value is reported as 0.38 ± 0.35; the “Tissue biodistribution, lung” value is 0.25 ± 0.026. In series [7] (24 h), the “Tissue biodistribution, muscle” value is 0.04 ± 0.00; the “Tissue biodistribution, salivary gland” value is given as 0.07 ± 0.08; the “Tissue biodistribution, spleen” value was 0.74 ± 0.64; the kidney uptake is 6.29±3.4 % ID/g. In addition, the “uptake in PSMA+ tumor” value in series [7] (24 h) is 40.6±5.8 ID/g. Besides, in series [7] (48 h), the “Tissue biodistribution, Blood” value was 0.03 ± 0.03; the “Tissue biodistribution, Flu tumor” value stood at 0.05 ± 0.00; the “Tissue biodistribution, PIP tumor” value was 16.99 ± 2.65; the “Tissue biodistribution, SI” value was found to be 0.04 ± 0.01. In addition, in series [7] (48 h), the “Tissue biodistribution, heart” value was 0.02 ± 0.00; the “Tissue biodistribution, kidney” value amounted to 2.35 ± 0.62; the “Tissue biodistribution, liver” value stood at 0.11 ± 0.07; the “Tissue biodistribution, lung” value is reported as 0.06 ± 0.04. For the same compound, in series [7] (48 h), the “Tissue biodistribution, muscle” value amounted to 0.02 ± 0.00; the “Tissue biodistribution, salivary gland” value turned out to be 0.10 ± 0.04; the “Tissue biodistribution, spleen” value came to 0.17 ± 0.05. In series [7] (72 h), the “Tissue biodistribution, Blood” value amounted to 0.01 ± 0.01; the “Tissue biodistribution, Flu tumor” value is given as 0.04 ± 0.00; the “Tissue biodistribution, PIP tumor” value stood at 15.63 ± 4.62; the “Tissue biodistribution, SI” value was 0.05 ± 0.03. Besides, in series [7] (72 h), the “Tissue biodistribution, heart” value is recorded as 0.03 ± 0.01; the “Tissue biodistribution, kidney” value was found to be 2.59 ± 1.10; the “Tissue biodistribution, liver” value worked out at 0.05 ± 0.03; the “Tissue biodistribution, lung” value is listed as 0.03 ± 0.02. Moreover, in series [7] (72 h), the “Tissue biodistribution, muscle” value was found to be 0.01 ± 0.01; the “Tissue biodistribution, salivary gland” value worked out at 0.09 ± 0.04; the “Tissue biodistribution, spleen” value was determined as 0.09 ± 0.08. Also, in series [7] (96 h), the “Tissue biodistribution, Blood” value is on record as 0.00 ± 0.00; the “Tissue biodistribution, Flu tumor” value was found to be 0.03 ± 0.0; the “Tissue biodistribution, PIP tumor” value is reported as 9.04 ± 1.72; the “Tissue biodistribution, SI” value turned out to be 0.01 ± 0.00. In series [7] (96 h), the “Tissue biodistribution, heart” value turned out to be 0.01 ± 0.00; the “Tissue biodistribution, kidney” value is given as 1.44 ± 0.11; the “Tissue biodistribution, liver” value is on record as 0.04 ± 0.0; the “Tissue biodistribution, lung” value came out at 0.05 ± 0.01. Besides, in series [7] (96 h), the “Tissue biodistribution, muscle” value was 0.01 ± 0.0; the “Tissue biodistribution, salivary gland” value is 0.06 ± 0.02; the “Tissue biodistribution, spleen” value is recorded as 0.06 ± 0.03.

Values taken from patent US10683272B2 (THE JOHNS HOPKINS UNIVERSITY, priority 2014, dated 2020).
